{"source": "patent US12071488B2", "about": "“Method of sensitizing cancer cells to anti-cancer treatment” (TWO TO BIOTECH LTD., priority 2017, dated 2024)", "key": {"MDA-MB-231 cells": {"tested_on": "MDA-MB-231 cells", "test": "FACS analysis of apoptosis (Annexin) in MDA-MB-231 cells", "format": "cell-based, human", "text": "Cells were examined for apoptosis or HER2 expression using FACS analysis. The HER2 antibody used was abcam ab16901. The marker Annexin (Enco) was used for assessment of apoptosis."}, "Notch3 receptor": {"tested_on": "Notch3 receptor", "test": "Western blot analysis of Notch3 receptor in membrane fraction of MDA-MB-231 cells", "format": "cell-based, human", "experimental": "MDA-MB-231 cells (0.8×10^6) were seeded on five 75 cm^2 flasks in 25 ml DMEM (41965039 Gibco) medium comprising 10% fetal bovine serum (FBS), Gentamycin Sulfate (03-035-1C Biological industries) and Amphotericin B (03-029-1C Biological industries). Cells were incubated overnight in an incubator. […]\nMedia was then removed and the cells were scrapped off the flask by a cell scraper into 1.8 ml fresh DMEM media. Cells were collected into 2 ml Eppendorf tubes in two fractions: cytosolic proteins and membrane proteins that were extracted by Membrane Protein Extraction Kit (Thermo scientific #89842). Protease inhibitors (Sigma p2714) and phosphatase inhibitors (Sigma P5726) were added to the Permeabilization and Solubilization Buffers, as recommended by the manufacturer.\nSamples were prepared for western blotting as follows: sample buffer (invitrogen cat #NP0007, 4-fold concentrated) and sample reducing agent (Invitrogen cat #NP0009, 10-fold concentrated) were added to each sample and the samples were boiled for 5 minutes. […]\nThe membrane was washed 3 times using TBST, and the secondary antibody αRabbit-HRP was then added (dilution 1:5000 in 5% milk in TBST) for an incubation of 1 hour at room temperature, with agitation. […] Notch 3 antibody was applied to the membrane and the quantitation of the protein was preformed and calibrated with beta-actin protein."}, "estrogen receptor alpha": {"tested_on": "estrogen receptor alpha", "test": "Western blot analysis of estrogen receptor alpha expression in MDA-MB-231 cells", "format": "cell-based, human", "conditions": "APC1 250 μg/ml once a week for one week or twice a week for 3 or 4 weeks", "text": "Abbreviations: M, protein parker; c, control; h, hour; w, week.\nIn view of the results shown above, the expression level of estrogen receptor alpha was directly assayed."}, "MDA-MB-468 cells": {"tested_on": "MDA-MB-468 cells", "test": "Resazurin cell viability assay with APC1 and cisplatin or doxorubicin, MDA-MB-468 cells", "format": "cell-based, human", "conditions": "MDA-MB-468 pre-incubated with APC1 250 μg/ml; doxorubicin 0.3, 0.5, 1 μM, 48 hours; concentration dependent", "experimental": "Cells treated with APC1 were seeded with APC1 at 250 μg/ml. The cells were incubated overnight.\nThen the media was aspirated from the plates, and 100 μl of the treatment solutions were added to the appropriate wells, each treatment in triplicates. The cells were incubated for 48 hours."}, "[1]": {"tested_on": "human ovarian cancer cells (OV90)", "test": "Relative tumor volume in nude mice inoculated with human ovarian cancer cells", "format": "in vivo", "conditions": "OV90 tumors", "quoted_text": "During the treatment period, each mouse was weighted, and the tumor size was measured by Digital caliper.\nWhen the tumors exceeded a volume of 40 mm^3 or 50 mm^3 (for OV90 and Panc1, respectively), the mice were randomly divided into four groups of 8 mice each, as follows. A control group was treated with saline only, the APC1-treated group was treated three times a week with doses of APC1 at 15 mg/kg each, the doxorubicin and APC treated group was treated twice a week with doses of APC1 (at 15 mg/kg each) and once a week with doxorubicin (at 3 mg/kg) and the doxorubicin-treated group was treated with doxorubicin only, once a week at a dose of 3 mg/kg. These dosing protocols were repeated throughout the experiment, namely for 5 weeks."}, "[2]": {"tested_on": "pancreatic cancer cells BxPC3", "test": "Glutathione level in pancreatic cancer cells treated with APC1", "format": "cell-based, human", "conditions": "pancreatic cancer cells (FIG. 18B)", "experimental": "Gluthatione Assay Kit (Sigma CS0260);\nCell lines (MDA-MB-231, MDA-MB-468) were grown in 75 cm^2 cell culture flask, reached 80-90% confluence. The cells were treated with APC1 (250 μg/ml, 2 times per week for 1 week).\nCells were washed twice with 10 ml PBS, PBS (5 ml) was added and the cells were collected by scrapping, centrifuged at 300G, 4° C. for 5 minutes, the supernatant was then discarded and the cells were treated with APC1 as indicated above. The values of the Glutathione Standard Solutions were used to determine the standard curve and the delta A412/min equivalent to 1 nmole of reduced glutathione per well was calculated according to manufacturer's instructions.\nAs detailed above, the ovarian cancer cells OV90 and OV3, the pancreatic cancer cells BxPC3 and Panel and the TNBC cancer cells MDA-MB-231 and MDA-MB-468 were treated with APC1 and then the relative glutathione levels in these cells was measured as detailed above."}}, "data": [{"sequence": "EKGAAFSPIYPRRK (C terminal peptide of KTPAF50) [APC1, polypeptide consisting of the 14 C-terminal amino acid residues of the peptide KTPAF50]", "values": [{"measurement": "apoptosis with APC1 per se", "setting": "MDA-MB-231 cells; APC1 alone (FIG. 5A and FIG. 5B)", "value": "insignificant (if any)"}, {"measurement": "level of cellular apoptosis", "setting": "MDA-MB-231 cells; MDA-MB-231, prolonged incubation, Kadcyla 96 hours (FIG. 6)", "value": "low level of apoptosis"}, {"measurement": "incubation period with highest Notch3 expression", "setting": "Notch3 receptor; APC1 250 μg/ml, 1, 3, 5 or 24 hours", "value": "highest for incubations periods of 3 and 5 hours"}, {"measurement": "expression of active Notch3 receptor on the cell membrane", "setting": "Notch3 receptor; APC1 250 μg/ml, membrane protein fraction", "value": "increase"}, {"measurement": "expression level of estrogen receptor alpha", "setting": "estrogen receptor alpha", "value": "clear increase"}, {"measurement": "sensitivity to doxorubicin (relative cell viability)", "setting": "MDA-MB-468 cells", "value": "increased the sensitivity"}, {"measurement": "effect on tumor volume compared with doxorubicin-treated group", "setting": "[1]; APC1 15 mg/kg three times a week", "value": "more pronounced"}, {"measurement": "relative tumor volume", "setting": "[1]; APC1 15 mg/kg, doxorubicin 3 mg/kg once a week, 5 weeks, control increased linearly", "value": "modest increases"}, {"measurement": "level of glutathione", "setting": "[2]", "value": "decreased"}]}]}
